Laboratory results as given in patent US8148400B2, “Thiazolyl compounds useful as kinase inhibitors” (Bristol-Myers Squibb Company, priority 2006, dated 2012).
Structures can show the parent of a compound that is named as a salt.

target: IGF1-receptor (Homo sapiens, UniProt P08069); assay: IGF1-Receptor Tyrosine Kinase Assay; type: biochemical; settings: ATP 25 μM; FL-peptide 1.5 μM; IGF1-Receptor 14 nM; 60 min room temperature; read-out: IGF-1R IC50
Protocol: D. IGF1-Receptor Tyrosine Kinase Assay
The assays were performed in U-bottom 384-well plates. The final assay volume was 30 μl prepared from 15 μl additions of enzyme and substrates (fluoresceinated IGF1R substrate peptide and ATP) and test compounds in assay buffer (100 mM HEPES pH 7.4, 10 mM MnCl2, 0.015% Brij35 and 4 mM DTT). The reaction was initiated by the combination of IGF1-receptor with substrates and test compounds. The reaction was incubated at room temperature for 60 min. and terminated by adding 30 μl of 35 mM EDTA to each sample. The reaction mixture was analyzed on the Caliper LabChip 3000 by electrophoretic separation of the fluorescent substrate and phosphorylated product. Inhibition data were calculated by comparison to no enzyme control reactions for 100% inhibition and vehicle-only reactions for 0% inhibition. The final concentration of reagents in the assays is ATP, 25 μM; FL-peptide, 1.5 μM; IGF1-Receptor, 14 nM; and DMSO, 1.6%. Dose response curves were generated to determine the concentration required to inhibit 50% of kinase activity (IC50). Compounds were dissolved at 10 mM in dimethylsulfoxide (DMSO) and evaluated at eleven concentrations, each in duplicate. IC50 values were derived by non-linear regression analysis.

Chain of IGF1-receptor (P08069 31-1367): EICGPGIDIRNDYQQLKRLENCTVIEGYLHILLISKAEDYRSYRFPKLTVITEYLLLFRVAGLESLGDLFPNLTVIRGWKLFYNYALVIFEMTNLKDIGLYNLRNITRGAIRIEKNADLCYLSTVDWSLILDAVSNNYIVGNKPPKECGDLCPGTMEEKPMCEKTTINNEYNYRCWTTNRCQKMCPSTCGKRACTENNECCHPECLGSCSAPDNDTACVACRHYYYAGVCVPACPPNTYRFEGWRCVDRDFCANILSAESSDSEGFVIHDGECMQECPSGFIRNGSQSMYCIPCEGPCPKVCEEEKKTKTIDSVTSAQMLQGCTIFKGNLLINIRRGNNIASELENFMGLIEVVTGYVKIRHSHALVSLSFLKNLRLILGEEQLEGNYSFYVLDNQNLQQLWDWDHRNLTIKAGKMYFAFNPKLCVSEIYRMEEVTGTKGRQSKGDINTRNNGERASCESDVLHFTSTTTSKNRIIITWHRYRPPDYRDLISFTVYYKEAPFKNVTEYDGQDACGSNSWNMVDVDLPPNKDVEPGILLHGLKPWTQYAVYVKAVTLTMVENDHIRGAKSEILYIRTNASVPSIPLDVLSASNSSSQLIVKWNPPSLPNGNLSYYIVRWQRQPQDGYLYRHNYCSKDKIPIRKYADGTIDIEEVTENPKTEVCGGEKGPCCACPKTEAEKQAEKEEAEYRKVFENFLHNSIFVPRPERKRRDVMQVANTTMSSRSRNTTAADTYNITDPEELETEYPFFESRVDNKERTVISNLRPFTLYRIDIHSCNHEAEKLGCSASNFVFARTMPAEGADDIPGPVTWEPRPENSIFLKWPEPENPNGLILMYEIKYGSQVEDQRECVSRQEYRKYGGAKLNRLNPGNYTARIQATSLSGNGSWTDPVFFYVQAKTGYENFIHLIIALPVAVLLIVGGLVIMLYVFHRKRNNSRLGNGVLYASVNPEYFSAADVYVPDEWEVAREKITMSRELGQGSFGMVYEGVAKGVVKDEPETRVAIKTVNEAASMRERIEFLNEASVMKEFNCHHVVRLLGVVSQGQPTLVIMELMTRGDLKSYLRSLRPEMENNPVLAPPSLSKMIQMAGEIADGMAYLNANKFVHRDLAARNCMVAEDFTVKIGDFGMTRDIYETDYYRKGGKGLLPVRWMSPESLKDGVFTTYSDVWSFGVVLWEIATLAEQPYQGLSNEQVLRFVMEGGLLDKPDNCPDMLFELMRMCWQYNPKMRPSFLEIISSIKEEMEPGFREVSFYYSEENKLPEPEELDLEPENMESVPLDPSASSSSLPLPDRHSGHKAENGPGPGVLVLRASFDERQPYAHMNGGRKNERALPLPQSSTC

In order of rising IC50:
1. Cc1ccnc(Nc2ncc(Sc3ccnc(C(=O)NCC(c4ccccc4)c4ccccc4CO)c3F)s2)c1 (stereo not drawn) [Example 65, 3-Fluoro-N-(2-(2-(hydroxymethyl)phenyl)-2-phenylethyl)-4-(2-(4-methylpyridin-2-ylamino)thiazol-5-ylthio)picolinamide]  0.001 µM
2. Cc1ccnc(Nc2ncc(Sc3ccnc(C(=O)NCC(CN(C)CCO)(c4ccccc4)c4ccccc4)c3F)s2)c1 [Example 52, 3-Fluoro-N-(3-((2-hydroxyethyl)(methyl)amino)-2,2-diphenylpropyl)-4-(2-(4-methylpyridin-2-ylamino)thiazol-5-ylthio)picolinamide]  0.003 µM
3. CCCC(O)(CNC(=O)c1nccc(Sc2cnc(Nc3ccc(CNC)cn3)s2)c1F)c1ccccc1 (stereo not drawn) [Example 82, 3-Fluoro-N-(2-hydroxy-2-phenylpentyl)-4-(2-(5-((methylamino)methyl)pyridin-2-ylamino)thiazol-5-ylthio)picolinamide]  0.003 µM
4. CCCC(O)(CNC(=O)c1nccc(Sc2cnc(Nc3ccc(CNC(=O)CN(C)C)cn3)s2)c1F)c1ccccc1 (stereo not drawn) [Example 77, 4-(2-(5-((2-(Dimethylamino)acetamido)methyl)pyridin-2-ylamino)thiazol-5-ylthio)-3-fluoro-N-(2-hydroxy-2-phenylpentyl)picolinamide]  0.004 µM
5. CCNCC(CNC(=O)c1nccc(Sc2cnc(Nc3cc(C)ccn3)s2)c1F)(c1ccccc1)c1ccccc1 [Example 69, N-(3-(ethylamino)-2,2-diphenylpropyl)-3-fluoro-4-(2-(4-methylpyridin-2-ylamino)thiazol-5-ylthio)picolinamide]  0.005 µM
6. Cc1ccnc(Nc2ncc(Sc3ccnc(C(=O)NCC(CNC(C)(C)C)(c4ccccc4)c4ccccc4)c3F)s2)c1 [Example 55, N-(3-(tert-butylamino)-2,2-diphenylpropyl)-3-fluoro-4-(2-(4-methylpyridin-2-ylamino)thiazol-5-ylthio)picolinamide]  0.199 µM
7. O=C(NCC(c1ccccc1)c1ccccc1CO)c1nccc(Sc2cnc(Nc3ccccn3)s2)c1F (stereo not drawn) [Example 63, 3-Fluoro-N-(2-(2-(hydroxymethyl)phenyl)-2-phenylethyl)-4-(2-(pyridin-2-ylamino)thiazol-5-ylthio)picolinamide]  0.25 µM
8. Cc1ccnc(Nc2ncc(Sc3ccnc(C(=O)NCC(c4ccccc4)c4cccc(CO)c4)c3F)s2)c1 (stereo not drawn) [Example 67, 3-Fluoro-N-(2-(3-(hydroxymethyl)phenyl)-2-phenylethyl)-4-(2-(4-methylpyridin-2-ylamino)thiazol-5-ylthio)picolinamide hydrochloride]  0.288 µM
9. (S)-3-Fluoro-N-(2-(2-(hydroxymethyl)phenyl)-2-phenylethyl)-4-(2-(pyridin-2-ylamino)thiazol-5-ylthio)picolinamide and (R)-3-fluoro-N-(2-(2-(hydroxymethyl)phenyl)-2-phenylethyl)-4-(2-(pyridin-2-ylamino)thiazol-5-ylthio)picolinamide [Example 64]  0.316 µM
10. CCC[C@@](O)(CNC(=O)c1nccc(Sc2cnc(Nc3nccc4sccc34)s2)c1F)c1ccccc1 [Example 83, (S)-3-fluoro-N-(2-hydroxy-2-phenylpentyl)-4-(2-(thieno[3,2-c]pyridin-4-ylamino)thiazol-5-ylthio)picolinamide]  0.394 µM
11. O=C(NCCc1c[nH]c2ccc(O)cc12)c1nccc(Sc2cnc(Nc3ccccn3)s2)c1F [Example 33, 3-Fluoro-N-(2-(5-hydroxy-1H-indol-3-yl)ethyl)-4-(2-(pyridin-2-ylamino)thiazol-5-ylthio)picolinamide]  0.693 µM
12. Cc1ccnc(Nc2ncc(Sc3ccnc(C(=O)NCC(CN4CCCCC4)(c4ccccc4)c4ccccc4)c3F)s2)c1 [Example 49, N-(2,2-diphenyl-3-(piperidin-1-yl)propyl)-3-fluoro-4-(2-(4-methylpyridin-2-ylamino)thiazol-5-ylthio)picolinamide]  0.886 µM
13. Cc1ccnc(Nc2ncc(Sc3ccnc(C(=O)NCC(c4ccccc4)c4ccccc4C)c3F)s2)c1 (stereo not drawn) [Example 56, 3-fluoro-4-(2-(4-methylpyridin-2-ylamino)thiazol-5-ylthio)-N-(2-phenyl-2-o-tolylethyl)picolinamide]  0.891 µM
14. Cc1ccnc(Nc2ncc(Sc3ccnc(C(=O)NCC(c4ccccc4)c4ccccc4Br)c3F)s2)c1 (stereo not drawn) [Example 58, N-(2-(2-bromophenyl)-2-phenylethyl)-3-fluoro-4-(2-(4-methylpyridin-2-ylamino)thiazol-5-ylthio)picolinamide]  1.52 µM
15. CC(C)(C)CNCC(CNC(=O)c1nccc(Sc2cnc(Nc3ccccn3)s2)c1F)(c1ccccc1)c1ccccc1 [Example 36, 3-Fluoro-N-(3-(neopentylamino)-2,2-diphenylpropyl)-4-(2-(pyridin-2-ylamino)thiazol-5-ylthio)picolinamide]  2.95 µM
